PubChem BioAssay AID1963850 (Molecular Pharmacology Branch, DTP, NCI, 2024)

System: 192522-019-R-J2-PDC complex tumor spheroid viability
Test: Anticancer human tumor 192522-019-R-J2-PDC patient-derived colon adenocarcinoma cell line growth inhibition [POLQ]
Conditions: for IC50: curve of first compound; for viability, T/C: stronger effect = lower value
How it was run: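 Growth inhibition in 3D: complex spheroids (tumor PDC, HUVEC, MSC) treated with POLQ inhibitor combinations; where Cmax unknown, highest tested concentration 10 microM, except SN-38 at 1 microM.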

[1] = second compound 0.0316 µM, first compound 0.0316 µM
[2] = second compound 0.0316 µM, first compound 0.1 µM
[3] = second compound 0.0316 µM, first compound 0.316 µM
[4] = second compound 0.0316 µM, first compound 1 µM
[5] = second compound 0.0316 µM, first compound 3.16 µM
[6] = second compound 0.0316 µM, first compound 10 µM
[7] = second compound 0.1 µM, first compound 0.0316 µM
[8] = second compound 0.1 µM, first compound 0.1 µM
[9] = second compound 0.1 µM, first compound 0.316 µM
[10] = second compound 0.1 µM, first compound 1 µM
[11] = second compound 0.1 µM, first compound 3.16 µM
[12] = second compound 0.1 µM, first compound 10 µM
[13] = second compound 0.316 µM, first compound 0.0316 µM
[14] = second compound 0.316 µM, first compound 0.1 µM
[15] = second compound 0.316 µM, first compound 0.316 µM
[16] = second compound 0.316 µM, first compound 1 µM
[17] = second compound 0.316 µM, first compound 3.16 µM
[18] = second compound 0.316 µM, first compound 10 µM
[19] = second compound 1 µM, first compound 0.0316 µM
[20] = second compound 1 µM, first compound 0.1 µM
[21] = second compound 1 µM, first compound 0.316 µM
[22] = second compound 1 µM, first compound 1 µM
[23] = second compound 1 µM, first compound 3.16 µM
[24] = second compound 1 µM, first compound 10 µM
[25] = second compound 3.16 µM, first compound 0.0316 µM
[26] = second compound 3.16 µM, first compound 0.1 µM
[27] = second compound 3.16 µM, first compound 0.316 µM
[28] = second compound 3.16 µM, first compound 1 µM
[29] = second compound 3.16 µM, first compound 3.16 µM
[30] = second compound 3.16 µM, first compound 10 µM
[31] = second compound 10 µM, first compound 0.0316 µM
[32] = second compound 10 µM, first compound 0.1 µM
[33] = second compound 10 µM, first compound 0.316 µM
[34] = second compound 10 µM, first compound 1 µM
[35] = second compound 10 µM, first compound 3.16 µM
[36] = second compound 10 µM, first compound 10 µM
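Further: spheroids exposed to drugs for seven days before reading.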
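Wherever viability, T/C is given: 100% = DMSO vehicle control viability in luminescence.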

C=CC(=O)N1CCN(c2nc(=O)n(-c3c(C)ccnc3C(C)C)c3nc(-c4c(O)cccc4F)c(F)cc23)C(C)C1 (centres undefined) + COC1C(OC(N)=O)C(O)C(Oc2ccc3c(O)c(NC(=O)c4ccc(O)c(CC=C(C)C)c4)c(=O)oc3c2C)OC1(C)C
IC50 (second compound 0.0316 µM): > 10 µM | IC50 (second compound 0.1 µM): > 10 µM | IC50 (second compound 0.316 µM): > 10 µM | IC50 (second compound 1 µM): > 10 µM | IC50 (second compound 3.16 µM): > 10 µM | IC50 (second compound 10 µM): > 10 µM | viability, T/C [1]: 107% | viability, T/C [2]: 96.2% | viability, T/C [3]: 103% | viability, T/C [4]: 98.7% | viability, T/C [5]: 107% | viability, T/C [6]: 97% | viability, T/C [7]: 101% | viability, T/C [8]: 91.1% | viability, T/C [9]: 93.3% | viability, T/C [10]: 96.5% | viability, T/C [11]: 101% | viability, T/C [12]: 105% | viability, T/C [13]: 103% | viability, T/C [14]: 101% | viability, T/C [15]: 101% | viability, T/C [16]: 99.7% | viability, T/C [17]: 105% | viability, T/C [18]: 114% | viability, T/C [19]: 97.7% | viability, T/C [20]: 105% | viability, T/C [21]: 112% | viability, T/C [22]: 110% | viability, T/C [23]: 109% | viability, T/C [24]: 121% | viability, T/C [25]: 103% | viability, T/C [26]: 105% | viability, T/C [27]: 109% | viability, T/C [28]: 106% | viability, T/C [29]: 117% | viability, T/C [30]: 102% | viability, T/C [31]: 104% | viability, T/C [32]: 92.5% | viability, T/C [33]: 105% | viability, T/C [34]: 96.8% | viability, T/C [35]: 118% | viability, T/C [36]: 107%

COc1cc2cc(C(=O)CCC(=O)O)sc2cc1OC + Nc1ccc(C#CCN(C(=O)Cc2ncc(C(F)(F)F)cc2C(F)(F)F)c2ccc(F)cc2)nn1
IC50 (second compound 0.0316 µM): > 10 µM | IC50 (second compound 0.1 µM): > 10 µM | IC50 (second compound 0.316 µM): > 10 µM | IC50 (second compound 1 µM): > 10 µM | IC50 (second compound 3.16 µM): > 10 µM | IC50 (second compound 10 µM): > 10 µM | viability, T/C [1]: 102% | viability, T/C [2]: 105% | viability, T/C [3]: 95.4% | viability, T/C [4]: 99.6% | viability, T/C [5]: 105% | viability, T/C [6]: 89% | viability, T/C [7]: 102% | viability, T/C [8]: 92.1% | viability, T/C [9]: 97.9% | viability, T/C [10]: 101% | viability, T/C [11]: 99.4% | viability, T/C [12]: 87.3% | viability, T/C [13]: 102% | viability, T/C [14]: 102% | viability, T/C [15]: 105% | viability, T/C [16]: 100% | viability, T/C [17]: 93.8% | viability, T/C [18]: 91.8% | viability, T/C [19]: 102% | viability, T/C [20]: 98.5% | viability, T/C [21]: 100% | viability, T/C [22]: 98.8% | viability, T/C [23]: 104% | viability, T/C [24]: 103% | viability, T/C [25]: 103% | viability, T/C [26]: 103% | viability, T/C [27]: 104% | viability, T/C [28]: 93.3% | viability, T/C [29]: 103% | viability, T/C [30]: 103% | viability, T/C [31]: 109% | viability, T/C [32]: 97.4% | viability, T/C [33]: 108% | viability, T/C [34]: 103% | viability, T/C [35]: 114% | viability, T/C [36]: 102%
